Test results as given in the supplement of paper PMC11208160.

Assay: recombinant UMI read abundance after kanamycin selection (control-corrected) (log10(CPM+1)); higher = more efficient recombination; extreme values may be limits of the assay; sequences stand for … in AGTGCAGAGAAAATCGGCCAGTTTTCTCTGCCTGCAGTCCGCATGCCGTGGGACCCCTTGGGTTCTAACCTGTTGCCTAGATTTATGCAGCGGACTGCCTTTCTCCCAAAGTGATAAACCGG…AGGTTGGTTTCACT; site = the 11-nt donor
How it was run: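 Sequencing read counts were converted to CPM, averaged over two replicates and scaled by control-derived factors. Results are given as log10(CPM+1). The reads covered the donor–target junction of recombinant UMIs from a pooled Escherichia coli screen of donor and donor-binding-loop pairs for the IS621 bridge recombinase.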
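Also: IS621 bridge recombinase in Escherichia coli cells against a fixed T5 target plasmid.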

Going from “ATCGCTGCATGGACCGGTTTTCCCGGTAATCCGTATTTGCC (site ATCGCTGCTGG)” to “ATCGGGTCATGGACCGGTTTTCCCGGTAATCCGTATTTGGT (site ATCGGGTCTAC)”, the “recombinant UMI read abundance (log10)” value falls from 2.27 to 1.85.

Going from “ATCGTATCATGGACCGGTTTTCCCGGTAATCCGTATTTGTC (site ATCGTATCTGA)” to “ATCGTCCCATGGACCGGTTTTCCCGGTAATCCGTATTTGAT (site ATCGTCCCTAT)”, the “recombinant UMI read abundance (log10)” value falls from 3.35 to 0.563.

Compared with “ATCTACCCATGGACCGGTTTTCCCGGTAATCCGTATTTGGC (site ATCTACCCTGC)”, “ATCTAGACATGGACCGGTTTTCCCGGTAATCCGTATTTGGG (site AACTAGACTCC)” is lower in “recombinant UMI read abundance (log10)” value: 0.584 for the first, 0.0333 for the second.

First: ATCTAGACATGGACCGGTTTTCCCGGTAATCCGTATTTGGG (site ACCTAGACTCC)
Second: ATCTAGACATGGACCGGTTTTCCCGGTAATCCGTATTTGGG (site AGCTAGACTCC)
The “recombinant UMI read abundance (log10)” value of the first is lower: 0.00659 for the first, 0.313 for the second.

Compared with “ATCTAGACATGGACCGGTTTTCCCGGTAATCCGTATTTGGG (site ATCTAGACTCC)”, “ATCTATACATGGACCGGTTTTCCCGGTAATCCGTATTTGAT (site ATCTATACTAT)” is higher in “recombinant UMI read abundance (log10)” value: 0.0102 for the first, 1.02 for the second.

“ATCTATACATGGACCGGTTTTCCCGGTAATCCGTATTTGAT (site ATCTATACTCT)” and “ATCTATACATGGACCGGTTTTCCCGGTAATCCGTATTTGAT (site ATCTATACTGT)” are within 0.2 log units of each other in “recombinant UMI read abundance (log10)” value: 0.147 for the first, 0 for the second.

First: ATCTATACATGGACCGGTTTTCCCGGTAATCCGTATTTGAT (site ATCTATACTTT)
Second: ATCTATCCATGGACCGGTTTTCCCGGTAATCCGTATTTGCT (site ATCTATCCTAG)
The “recombinant UMI read abundance (log10)” value of the first is lower: 0.00795 for the first, 1.24 for the second.

Compared with “ATCTCTGCATGGACCGGTTTTCCCGGTAATCCGTATTTGCT (site ATCTCTGCTAG)”, “ATCTGCCCATGGACCGGTTTTCCCGGTAATCCGTATTTGCT (site ATCTGCCCTAG)” is lower in “recombinant UMI read abundance (log10)” value: 1.73 for the first, 0.548 for the second.

Going from “ATCTGCTCATGGACCGGTTTTCCCGGTAATCCGTATTTGGA (site ATCTGCTCTTC)” to “ATCTGGGCATGGACCGGTTTTCCCGGTAATCCGTATTTGGT (site ATCTGGGCTAC)”, the “recombinant UMI read abundance (log10)” value falls from 1.49 to 0.162.

Going from “ATCTTGGCATGGACCGGTTTTCCCGGTAATCCGTATTTGGG (site ATCTTGGCTCC)” to “ATGAAGACATGGACCGGTTTTCCCGGTAATCCGTATTTGCA (site AAGAAGACTTG)”, the “recombinant UMI read abundance (log10)” value rises from 0.448 to 1.29.

First: ATGAAGACATGGACCGGTTTTCCCGGTAATCCGTATTTGCA (site ACGAAGACTTG)
Second: ATGAAGACATGGACCGGTTTTCCCGGTAATCCGTATTTGCA (site AGGAAGACTTG)
The “recombinant UMI read abundance (log10)” value of the first is higher: 2.34 for the first, 1.02 for the second.

Compared with “ATGAAGACATGGACCGGTTTTCCCGGTAATCCGTATTTGCA (site ATGAAGACTTG)”, “ATGAAGACATGGACCGGTTTTCCCGGTAATCCGTATTTGGA (site AGGAAGACTTG)” is lower in “recombinant UMI read abundance (log10)” value: 2.64 for the first, 0 for the second.

First: ATGAAGACATGGACCGGTTTTCCCGGTAATCCGTATTTGGA (site ATGAAGACTTC)
Second: ATGACAACATGGACCGGTTTTCCCGGTAATCCGTATTTGGA (site ATGACAACTTC)
The “recombinant UMI read abundance (log10)” value of the first is higher: 1.52 for the first, 1.22 for the second.

Going from “ATGACGCCATGGACCGGTTTTCCCGGTAATCCGTATTTGGA (site ATGACGCCTTC)” to “ATGAGCACATGGACCGGTTTTCCCGGTAATCCGTATTTGGC (site ATGAGCACTGC)”, the “recombinant UMI read abundance (log10)” value rises from 0.0104 to 2.98.

Going from “ATGATAACATGGACCGGTTTTCCCGGTAATCCGTATTTGCC (site ATGATAACTGG)” to “ATGCAGACATGGACCGGTTTTCCCGGTAATCCGTATTTGTC (site ATGCAGACTGA)”, the “recombinant UMI read abundance (log10)” value falls from 3.06 to 2.43.

First: ATGCCGCCATGGACCGGTTTTCCCGGTAATCCGTATTTGGG (site ATGCCGCCTCC)
Second: ATGCGTTCATGGACCGGTTTTCCCGGTAATCCGTATTTGAC (site ATGCGTTCTGT)
The “recombinant UMI read abundance (log10)” value of the first is lower: 0.0227 for the first, 2.37 for the second.

Going from “ATGCGTTCATGGACCGGTTTTCCCGGTAATCCGTATTTGCG (site ATGCGTTCTCG)” to “ATGCTACCATGGACCGGTTTTCCCGGTAATCCGTATTTGCT (site ATGCTACCTAG)”, the “recombinant UMI read abundance (log10)” value falls from 1.96 to 0.

“ATGCTACCATGGACCGGTTTTCCCGGTAATCCGTATTTGCT (site CTGCTACCTAG)” and “ATGCTACCATGGACCGGTTTTCCCGGTAATCCGTATTTGCT (site GTGCTACCTAG)” are the same in “recombinant UMI read abundance (log10)” value: 0 for the first, 0 for the second.

“ATGCTACCATGGACCGGTTTTCCCGGTAATCCGTATTTGCT (site TTGCTACCTAG)” and “ATGGCAACATGGACCGGTTTTCCCGGTAATCCGTATTTGTG (site ATGGCAACTCA)” are within 0.2 log units of each other in “recombinant UMI read abundance (log10)” value: 0 for the first, 0.02 for the second.
